Values of other authors as cited in patent US11571414B2, “Methods of treating respiratory illnesses, alleviating inflammation and visceral pain, and alleviating opioid addiction while suppressing withdrawal symptoms” (priority 2019, dated 2023).

Test system: μ-opioid receptor and the nociception receptor
Details: nonhuman primates

## CC(C)C1CCC(N2CCC3(CC2)C(=O)N(CCNS(N)(=O)=O)Cc2ccccc23)CC1 (centres unmarked) [AT-121]
  addictive effects: suppresses the addictive effects
  analgesic effects: morphine-like analgesic effects
